The values below come from US9708314B2, “Heterocyclic amide compound” (NISSAN CHEMICAL INDUSTRIES, LTD., priority 2013, dated 2017).

SMILES strings stand for the structures.

Type in all cases: in vivo
For data set [1], the system named is transplanted Oryza sativa. The data set can be described thus: Test Example 1: effect on crop, application before weed generation in submerged conditions. To be noted: Seventeenth Table; for a (transplanted Oryza sativa) effect on crop grade: application herbicide amount 320 g/ha; for a: transplanted Oryza sativa (effect on crop grade): Application herbicide amount 320 g/ha. An outline of the steps: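 Alluvial soil in Wagner pots flooded to 4 cm water depth; weed seeds sown and 2.5 leaf stage rice seedlings transplanted. Emulsion diluted in water applied to water surface on sowing day at stated g/ha. Greenhouse 25° C. to 30° C.; effects scored 0–5 by herbicidal ratio after three weeks.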

The subject of data set [2] is Echinochloa oryzacola Vasing. The experiment in a line: Test Example 2: herbicidal activity, application during weed generation in submerged conditions. To be noted: Eighteenth Table; application herbicide amount 320 g/ha. Put shortly:
(§1)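 Alluvial soil in Wagner pots flooded to 4 cm water depth; seeds sown mixed, grown in greenhouse at 25–30 °C. At one- to two-leaf stage, emulsion diluted with water to the set rate (g/ha) was applied to the water surface. Effect scored 0–5 by herbicidal ratio three weeks later.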

A further data set relates to Scirpus juncoides. The description is as above. To be noted: Eighteenth Table; application herbicide amount 320 g/ha. An outline of the steps: as §1
Another data set deals with Monochoria vaginalis. Described as above. To be noted: Eighteenth Table; application herbicide amount 320 g/ha. An outline of the steps:
as §1

For data set [3], the system named is directly sowed Oryza sativa. The experiment in a line: Test Example 3: effect on crop by application to foliage (Wagner pot, water depth 0.1-0.5 cm). To be noted: Nineteenth Table; application to foliage; application herbicide amount 320 g/ha. An outline of the steps:
(§2)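 Visual 0–5 rating of herbicidal ratio, taken 3 weeks after foliar spray of a diluted emulsion formulation at rates expressed as g/ha. Plants had been sown in alluvial soil under 0.1–0.5 cm water and grown 14 days at 25–30 °C under glass before application.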

The test system of a further data set is Leptochloa chinensis. The experiment in a line: Test Example 3: herbicidal effect by application to foliage (Wagner pot, water depth 0.1-0.5 cm). To be noted: Nineteenth Table; application to foliage; application herbicide amount 320 g/ha. Put shortly:
as §2

Data set [4] has as its system Echinochloa crus-galli var. crus-galli. The data set is described as above. To be noted: Nineteenth Table; application to foliage; application herbicide amount 320 g/ha. Put shortly: as §2
The next data set relates to Cyperus difformis. The description is as above. To be noted: Nineteenth Table; application to foliage; application herbicide amount 320 g/ha. An outline of the steps: as §2

As for `C=CCN(C)c1nnc2c(C(=O)Nc3nnnn3C)ccc(C(F)(F)F)n12` [2-100], the “a (transplanted Oryza sativa) effect on crop grade” value in data set [1] was 3 (Herbicidal ratio of 40% or more and less than 70%). In data set [2], the “A (Echinochloa oryzicola Vasing.) herbicidal ratio grade” value was 4 (Herbicidal ratio of 70% or more and less than 90%). Moreover, in the data set with Scirpus juncoides, the “B (Scirpus juncoides) herbicidal ratio grade” value was 3 (Herbicidal ratio of 40% or more and less than 70%). Besides, the “C (Monochoria vaginalis) herbicidal ratio grade” value in the data set with Monochoria vaginalis is 4 (Herbicidal ratio of 70% or more and less than 90%). Moreover, the “b (effect on crop grade)” value in data set [3] was 3 (Herbicidal ratio of 40% or more and less than 70%). In the data set with Leptochloa chinensis, the “D (herbicidal effect grade)” value is on record as 5 (Herbicidal ratio of 90% or more (almost completely withered)). Besides, in data set [4], the “H (herbicidal effect grade)” value was 5 (Herbicidal ratio of 90% or more (almost completely withered)).
Consider `Cn1nnnc1NC(=O)c1ccc(C(F)(F)F)n2c(C3(C)CC3(Cl)Cl)nnc12` (stereo not drawn) [2-110], for which the “a (transplanted Oryza sativa) effect on crop grade” value in data set [1] is 4 (Herbicidal ratio of 70% or more and less than 90%). In addition, the “A (Echinochloa oryzicola Vasing.) herbicidal ratio grade” value in data set [2] was 5 (Herbicidal ratio of 90% or more (almost completely withered)). In the data set with Scirpus juncoides, the “B (Scirpus juncoides) herbicidal ratio grade” value is 5 (Herbicidal ratio of 90% or more (almost completely withered)). The “C (Monochoria vaginalis) herbicidal ratio grade” value with Monochoria vaginalis was 4 (Herbicidal ratio of 70% or more and less than 90%). Also, in data set [3], the “b (effect on crop grade)” value was 3 (Herbicidal ratio of 40% or more and less than 70%). Moreover, the “D (herbicidal effect grade)” value in the data set on Leptochloa chinensis was 5 (Herbicidal ratio of 90% or more (almost completely withered)). For the same compound, the “H (herbicidal effect grade)” value in data set [4] was 5 (Herbicidal ratio of 90% or more (almost completely withered)).
On to `CC(=O)OCc1nnc2c(C(=O)Nc3nnnn3C)ccc(C(F)(F)F)n12` [2-107], for which, in data set [1], the “a (transplanted Oryza sativa) effect on crop grade” value is 1 (Herbicidal ratio of 5% or more and less than 20%). Also, the “A (Echinochloa oryzicola Vasing.) herbicidal ratio grade” value in data set [2] was 2 (Herbicidal ratio of 20% or more and less than 40%). Besides, the “B (Scirpus juncoides) herbicidal ratio grade” value with Scirpus juncoides was 1 (Herbicidal ratio of 5% or more and less than 20%). Further, the “C (Monochoria vaginalis) herbicidal ratio grade” value in the data set on Monochoria vaginalis is 2 (Herbicidal ratio of 20% or more and less than 40%). Besides, the “b (effect on crop grade)” value in data set [3] is 4 (Herbicidal ratio of 70% or more and less than 90%). Besides, the “D (herbicidal effect grade)” value with Leptochloa chinensis was 5 (Herbicidal ratio of 90% or more (almost completely withered)). In data set [4], the “H (herbicidal effect grade)” value was 4 (Herbicidal ratio of 70% or more and less than 90%).
With `C=CCSc1nnc2c(C(=O)Nc3nnnn3C)ccc(C(F)(F)F)n12` [2-102], the “a (transplanted Oryza sativa) effect on crop grade” value in data set [1] is 1 (Herbicidal ratio of 5% or more and less than 20%). The “A (Echinochloa oryzicola Vasing.) herbicidal ratio grade” value in data set [2] is 4 (Herbicidal ratio of 70% or more and less than 90%). For the same compound, the “B (Scirpus juncoides) herbicidal ratio grade” value with Scirpus juncoides was 4 (Herbicidal ratio of 70% or more and less than 90%). For the same compound, in the data set on Monochoria vaginalis, the “C (Monochoria vaginalis) herbicidal ratio grade” value is 4 (Herbicidal ratio of 70% or more and less than 90%). Also, in data set [3], the “b (effect on crop grade)” value is 1 (Herbicidal ratio of 5% or more and less than 20%). For the same compound, the “D (herbicidal effect grade)” value with Leptochloa chinensis is 4 (Herbicidal ratio of 70% or more and less than 90%). The “H (herbicidal effect grade)” value in data set [4] is reported as 5 (Herbicidal ratio of 90% or more (almost completely withered)).
Regarding `COc1ccc(N(C)c2nnc3c(C(=O)Nc4nnnn4C)ccc(C(F)(F)F)n23)cc1` [2-099], in data set [1], the “a (transplanted Oryza sativa) effect on crop grade” value is 4 (Herbicidal ratio of 70% or more and less than 90%). Also, the “A (Echinochloa oryzicola Vasing.) herbicidal ratio grade” value in data set [2] is listed as 5 (Herbicidal ratio of 90% or more (almost completely withered)). Besides, in the data set on Scirpus juncoides, the “B (Scirpus juncoides) herbicidal ratio grade” value is on record as 5 (Herbicidal ratio of 90% or more (almost completely withered)). The “C (Monochoria vaginalis) herbicidal ratio grade” value in the data set with Monochoria vaginalis is 4 (Herbicidal ratio of 70% or more and less than 90%). For the same compound, the “b (effect on crop grade)” value in data set [3] was 4 (Herbicidal ratio of 70% or more and less than 90%). Further, the “D (herbicidal effect grade)” value with Leptochloa chinensis is on record as 5 (Herbicidal ratio of 90% or more (almost completely withered)). The “H (herbicidal effect grade)” value in data set [4] is 5 (Herbicidal ratio of 90% or more (almost completely withered)).
For `CC#Cc1nnc2c(C(=O)Nc3nnnn3C)ccc(C(F)(F)F)n12` [2-106], in data set [1], the “a (transplanted Oryza sativa) effect on crop grade” value is 2 (Herbicidal ratio of 20% or more and less than 40%). For the same compound, the “A (Echinochloa oryzicola Vasing.) herbicidal ratio grade” value in data set [2] was 1 (Herbicidal ratio of 5% or more and less than 20%). Moreover, in the data set with Scirpus juncoides, the “B (Scirpus juncoides) herbicidal ratio grade” value was 2 (Herbicidal ratio of 20% or more and less than 40%). Moreover, the “C (Monochoria vaginalis) herbicidal ratio grade” value in the data set with Monochoria vaginalis is 3 (Herbicidal ratio of 40% or more and less than 70%). The “b (effect on crop grade)” value in data set [3] was 0 (Herbicidal ratio of 5% or less (almost no effect)). In addition, the “D (herbicidal effect grade)” value in the data set with Leptochloa chinensis was 2 (Herbicidal ratio of 20% or more and less than 40%). In addition, in data set [4], the “H (herbicidal effect grade)” value was 1 (Herbicidal ratio of 5% or more and less than 20%).
`C#CCSc1nnc2c(C(=O)Nc3nnnn3C)ccc(C(F)(F)F)n12` [2-103]: the “a (transplanted Oryza sativa) effect on crop grade” value in data set [1] was 3 (Herbicidal ratio of 40% or more and less than 70%). In data set [2], the “A (Echinochloa oryzicola Vasing.) herbicidal ratio grade” value was 4 (Herbicidal ratio of 70% or more and less than 90%). The “B (Scirpus juncoides) herbicidal ratio grade” value with Scirpus juncoides is 3 (Herbicidal ratio of 40% or more and less than 70%). Besides, the “C (Monochoria vaginalis) herbicidal ratio grade” value in the data set on Monochoria vaginalis is 4 (Herbicidal ratio of 70% or more and less than 90%). Further, the “b (effect on crop grade)” value in data set [3] was 1 (Herbicidal ratio of 5% or more and less than 20%). Further, the “D (herbicidal effect grade)” value in the data set on Leptochloa chinensis is listed as 5 (Herbicidal ratio of 90% or more (almost completely withered)). Also, the “H (herbicidal effect grade)” value in data set [4] is on record as 5 (Herbicidal ratio of 90% or more (almost completely withered)).
For the compound `Cc1nnc(NC(=O)c2ccc(C(F)(F)F)n3c(SC4CCCC4)nnc23)o1` [1-154], in data set [1], the “a: transplanted Oryza sativa (effect on crop grade)” value is on record as 0 (Herbicidal ratio of 5% or less (almost no effect)). Further, the “A (Echinochloa oryzicola Vasing.) herbicidal ratio grade” value in data set [2] is recorded as 0 (Herbicidal ratio of 5% or less (almost no effect)). Also, the “B (Scirpus juncoides) herbicidal ratio grade” value with Scirpus juncoides is 2 (Herbicidal ratio of 20% or more and less than 40%). In addition, the “C (Monochoria vaginalis) herbicidal ratio grade” value with Monochoria vaginalis is 0 (Herbicidal ratio of 5% or less (almost no effect)). Moreover, the “E (herbicidal effect grade)” value with Cyperus difformis was 4 (Herbicidal ratio of 70% or more and less than 90%). For the same compound, in the data set with Leptochloa chinensis, the “D (herbicidal effect grade)” value is 2 (Herbicidal ratio of 20% or more and less than 40%). Also, the “H (herbicidal effect grade)” value in data set [4] is 3 (Herbicidal ratio of 40% or more and less than 70%).
Regarding `C=CCn1nnnc1NC(=O)c1ccc(C(F)(F)F)n2c(C(C)C)nnc12` [2-091], the “a: transplanted Oryza sativa (effect on crop grade)” value in data set [1] is 0 (Herbicidal ratio of 5% or less (almost no effect)). Also, the “A (Echinochloa oryzicola Vasing.) herbicidal ratio grade” value in data set [2] was 4 (Herbicidal ratio of 70% or more and less than 90%). In the data set with Scirpus juncoides, the “B (Scirpus juncoides) herbicidal ratio grade” value is on record as 5 (Herbicidal ratio of 90% or more (almost completely withered)). Moreover, in the data set on Monochoria vaginalis, the “C (Monochoria vaginalis) herbicidal ratio grade” value was 4 (Herbicidal ratio of 70% or more and less than 90%). For the same compound, the “E (herbicidal effect grade)” value in the data set with Cyperus difformis is 4 (Herbicidal ratio of 70% or more and less than 90%). For the same compound, the “D (herbicidal effect grade)” value in the data set on Leptochloa chinensis is 3 (Herbicidal ratio of 40% or more and less than 70%). The “H (herbicidal effect grade)” value in data set [4] was 5 (Herbicidal ratio of 90% or more (almost completely withered)).
